The record followed here is PMC6918687, “Pharmacological inhibition of TAK1, with the selective inhibitor takinib, alleviates clinical manifestation of arthritis in CIA mice” (Arthritis Research & Therapy, 2019).

Data set [1] has as its system RA-FLS cells. The data set can be described thus: Cell viability assay (Cell Titer Glo 2.0) in RA-FLS cells. The class given is cell-based. How it is done: RA-FLS cells were cultured and treated as previously described. Briefly, cells were plated at 80% confluency ~ 10^4 in 96-well plates and treated with either takinib at various concentrations or takinib + TNF (30 ng/mL) for 24 or 48 h and compared to vehicle-treated samples. Cell death was quantified using Cell Titer Glo 2.0 (Promega) according to the manufacturer’s protocol.
Background: ATP-based viability assays read luminescence as a measure of living cells.

The test system of data set [2] is RA-FLS cells. The data set can be described thus: Cytokine/chemokine proteome array, TNF-stimulated RA-FLS cells. The class given is cell-based, human. The conditions noted are these: takinib 10 μM, TNF 30 ng/mL 24 h. How it is done:
Rheumatoid arthritis fibroblast-like synoviocytes (RA-FLS) cells were prepared from surgical synovial samples at the University of Michigan as previously described. Cells were isolated from 4 individual patients (3 female, 1 male) and passaged no more than 2 times before use. Cells were cultured in CRML media, 10% FBS, 1% penicillin-streptomycin (PS), and 1% glutamate.
RA-FLS cells were activated by addition of LPS 10 ng/mL in the presence or absence of 10 μM takinib or DMSO. Twenty-four hours after treatment, supernatant was added to Human Cytokine proteome array (R&D Systems). Cytokine kit was conducted in accordance with manufacturer protocol. Chemiluminescence was used to visualize protein quantities.
Briefly, 10^6 cells were plated and either no treatment (naïve) or pretreated with takinib (10 μM) or vehicle (DMSO) for 30 min prior to stimulation with TNF (30 ng/mL) for 30 min at 37 °C in 5% CO2 for phospho-kinase assay (R&D Systems). NF-κB and cytokine assays were performed as previously described; however, cells were incubated for 24 h post-TNF (30 ng/mL) or LPS (10 ng/mL) stimulation.

For the compound `CCCn1/c(=N/C(=O)c2cccc(C(N)=O)c2)[nH]c2ccccc21` [takinib], the “cell death vs vehicle control” value in data set [1] (10 μM takinib alone, 48 h, p < 0.002) was “significant amount of cell death”. For the same compound, the “cytotoxicity in the presence of TNF” value in data set [1] (takinib at varying doses + TNF 30 ng/mL, 24 and 48 h) is recorded as “Minimal cytotoxicity”. Besides, the “GROα (CXCL1) secretion” value in data set [2] (p < 0.002) is “reduced”. In addition, the ICAM secretion result in data set [2] (p < 0.03) is “reduced”. The G-CSF secretion result in data set [2] (p < 0.04) was “reduced”. In addition, the MIP-1α/MIP-1β secretion result in data set [2] (p = 0.11) is “modest change”.
